Measured values as given in PMC5491650, “Structure-Activity Relationships of Pentacyclic Triterpenoids as Potent and Selective Inhibitors against Human Carboxylesterase 1” (Frontiers in Pharmacology, 2017).
“Also recorded” adds a separate entry of the source.

Columns and labels:
Assay type in all cases: biochemical
hCE2 = molecular target: T1, hCE2 (Homo sapiens, UniProt O00748); experiment: hCE2 inhibition assay, DDAB hydrolysis in human liver microsomes; conditions: DDAB as probe substrate, HLM; averages of at least three experiments; read-out: IC50 (hCE2)
T1 construct: tissue Celsis (Shanghai, China); host or cells: human liver microsomes (HLM)
T1 sequence (O00748 27-559): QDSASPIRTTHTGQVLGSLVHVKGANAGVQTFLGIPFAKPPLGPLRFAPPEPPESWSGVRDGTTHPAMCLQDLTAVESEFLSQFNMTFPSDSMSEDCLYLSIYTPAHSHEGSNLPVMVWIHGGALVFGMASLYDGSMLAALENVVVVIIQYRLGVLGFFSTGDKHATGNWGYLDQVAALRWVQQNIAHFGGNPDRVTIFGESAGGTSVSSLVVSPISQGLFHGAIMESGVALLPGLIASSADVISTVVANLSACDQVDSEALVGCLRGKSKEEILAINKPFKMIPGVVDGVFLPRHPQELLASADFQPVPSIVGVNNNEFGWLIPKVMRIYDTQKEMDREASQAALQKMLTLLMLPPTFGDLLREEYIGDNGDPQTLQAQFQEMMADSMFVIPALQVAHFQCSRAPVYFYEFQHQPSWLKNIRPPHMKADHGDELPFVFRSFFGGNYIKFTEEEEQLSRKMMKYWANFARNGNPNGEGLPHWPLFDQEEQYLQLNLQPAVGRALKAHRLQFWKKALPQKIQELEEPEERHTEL
Protocol: (§1) All fluorescence-based assays were performed on Synergy H^1 Hybrid Multi-Mode Microplate Reader (BioTek, USA).
(§2) The inhibitory effects toward CEs were assayed using DME and DDAB as the specific probe substrates for hCE1 and hCE2, respectively. […] Control incubations without BNPP were also performed. After incubation, ice-cold acetonitrile (equal volume of incubation mixture, 200 μL) was added to terminate the reaction. The mixture was then centrifuged at 20,000 g for 20 min at 4°C. All these compounds dissolved in DMSO, and the final concentration of DMSO was <2% (V/V). Aliquots of the supernatant were then taken for further microplate reader analyses. […] First, each of the potential esterase inhibitors was pre-incubated with HLM at 37°C for 10 min with shaking in microplate reader. Then DME was added to start the reaction. After incubation at 37°C for 10 min in a shaking bath, LDR (equal volume of incubation mixture, 50 μL) was added to terminate the reaction, and luminescence measurements were conducted as described above.

hCE1 [1] = molecular target: T2, hCE1 (Homo sapiens, UniProt P23141); experiment: Inhibition of DME hydrolysis by recombinant hCE1
T2 sequence (P23141 18-567): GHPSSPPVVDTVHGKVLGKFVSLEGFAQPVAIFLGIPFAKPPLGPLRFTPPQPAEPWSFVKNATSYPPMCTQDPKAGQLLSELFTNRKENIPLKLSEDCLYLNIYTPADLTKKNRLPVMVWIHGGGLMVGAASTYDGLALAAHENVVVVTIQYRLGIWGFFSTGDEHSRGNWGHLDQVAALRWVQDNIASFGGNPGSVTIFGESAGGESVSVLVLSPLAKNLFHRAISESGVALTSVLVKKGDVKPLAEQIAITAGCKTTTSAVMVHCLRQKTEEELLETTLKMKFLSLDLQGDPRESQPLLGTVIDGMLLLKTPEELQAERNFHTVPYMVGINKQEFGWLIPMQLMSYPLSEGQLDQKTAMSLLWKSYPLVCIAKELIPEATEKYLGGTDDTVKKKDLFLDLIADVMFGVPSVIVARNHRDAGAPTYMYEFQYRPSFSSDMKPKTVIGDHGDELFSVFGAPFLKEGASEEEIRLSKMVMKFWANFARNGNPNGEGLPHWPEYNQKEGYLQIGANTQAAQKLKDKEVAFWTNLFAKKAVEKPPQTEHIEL
Protocol: To further investigate the inhibitory behaviors of compound 22 on the catalytic activity of hCE1, the inhibition behaviors of this compound against hCE1 were performed. […] In addition, the inhibitory tendency and potency of compound 22 against DME-hydrolysis in both HLMs and hCE1 were much closed (Figure S1).

hCE1 [2] = molecular target: T2, hCE1; experiment: hCE1 inhibition assay, DME hydrolysis in human liver microsomes; parameters: tissue Celsis (Shanghai, China); host or cells: human liver microsomes (HLM);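 also: carboxylesterase inhibition read out as probe hydrolysis, with DME serving as hCE1 substrate and DDAB as hCE2 substrate, in DMSO below 2% (V/V)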
Protocol: as §1, §2

hCE1 [3] = molecular target: T2, hCE1; experiment: Inhibition of hCE1-mediated BMBT hydrolysis in HLMs; parameters: tissue Celsis (Shanghai, China); host or cells: human liver microsomes (HLM)
Protocol: The half maximal inhibitory concentration (IC50) of each compound was determined using various inhibitor concentrations under the same incubation conditions as mentioned above. The inhibition constant (Ki) values of compound 22 against hCE1 in HLM were determined using varied concentrations of DME in the presence or absence of each inhibitor. […] Dixon plot and Lineweaver-Burk plots were used to fit the data. The inhibition kinetic type was evaluated by determining the intersection point in the Dixon and Lineweaver-Burk plots. The second plots based on the slopes from Lineweaver-Burk plot vs. inhibitor concentrations were utilized to calculate each the inhibition constant (Ki) value (Wang et al., [2015]; Zhu et al., [2015], [2016]).
To this end, another optical probe substrate (BMBT) for hCE1 was used for further investigation on the inhibition behaviors of compound 22 (Liu et al., [2014]).

IC50 (hCE2): 83000 nM
IC50 (hCE1 [1]): 9.2 nM
Ki (hCE1 [2]): 12.6 nM
IC50 (hCE1 [2]; IC50 (hCE1), DME as probe substrate, HLM, averages of at least three experiments): 12 nM
IC50 (hCE1 [2]; IC50 against hCE1, DME hydrolysis in HLM): 12.6 nM
Selectivity (hCE1 [2]; calculated from IC50 (hCE2)/IC50 (hCE1) as printed): 6919.2
selectivity over hCE2 (hCE1 [2]; hCE1 versus hCE2, values of the text): 6,919 fold
Observed Log(IC50_hCE1) (hCE1 [2]; log of the experimental IC50 in μM, used for 3D-QSAR): -1.921 μM
IC50 (hCE1 [3]): 30.3 nM
Ki (hCE1 [3]): 35.5 nM
inhibition type against hCE1-mediated BMBT hydrolysis (hCE1 [3]; HLMs, Lineweaver-Burk plot): non-competitive inhibitor
SMILES: CC1CCC2(C(=O)O)CCC3(C)C(=CCC4C5(C)CCC(OC(=O)CCC(=O)O)C(C)(C)C5CCC43C)C2C1C (stereo not drawn) [Compound 22, 3β-O-(β-carboxypropionyl)-urs-12-en-28-oic acid]
inhibition type against hCE1-mediated DME hydrolysis (hCE1 [2]; HLMs, Lineweaver-Burk plots): competitive inhibitor; also recorded: competitive inhibition
